Experimental data reported in patent US10738040B2, “Compounds, compositions, and methods for increasing CFTR activity” (Proteostasis Therapeutics, Inc., priority 2014, dated 2020).

Target: T1, ΔF508-CFTR (Homo sapiens, UniProt P13569, DEL508-508)
T1 construct: Primary lung epithelial cells homozygous for the Cystic Fibrosis-causing ΔF508 mutation were differentiated; endogenous in cells; host or cells: primary human lung (bronchial) epithelial cells homozygous for ΔF508, differentiated at air-liquid interface
T1 sequence (P13569 with tags, fused parts or gaps DEL508-508): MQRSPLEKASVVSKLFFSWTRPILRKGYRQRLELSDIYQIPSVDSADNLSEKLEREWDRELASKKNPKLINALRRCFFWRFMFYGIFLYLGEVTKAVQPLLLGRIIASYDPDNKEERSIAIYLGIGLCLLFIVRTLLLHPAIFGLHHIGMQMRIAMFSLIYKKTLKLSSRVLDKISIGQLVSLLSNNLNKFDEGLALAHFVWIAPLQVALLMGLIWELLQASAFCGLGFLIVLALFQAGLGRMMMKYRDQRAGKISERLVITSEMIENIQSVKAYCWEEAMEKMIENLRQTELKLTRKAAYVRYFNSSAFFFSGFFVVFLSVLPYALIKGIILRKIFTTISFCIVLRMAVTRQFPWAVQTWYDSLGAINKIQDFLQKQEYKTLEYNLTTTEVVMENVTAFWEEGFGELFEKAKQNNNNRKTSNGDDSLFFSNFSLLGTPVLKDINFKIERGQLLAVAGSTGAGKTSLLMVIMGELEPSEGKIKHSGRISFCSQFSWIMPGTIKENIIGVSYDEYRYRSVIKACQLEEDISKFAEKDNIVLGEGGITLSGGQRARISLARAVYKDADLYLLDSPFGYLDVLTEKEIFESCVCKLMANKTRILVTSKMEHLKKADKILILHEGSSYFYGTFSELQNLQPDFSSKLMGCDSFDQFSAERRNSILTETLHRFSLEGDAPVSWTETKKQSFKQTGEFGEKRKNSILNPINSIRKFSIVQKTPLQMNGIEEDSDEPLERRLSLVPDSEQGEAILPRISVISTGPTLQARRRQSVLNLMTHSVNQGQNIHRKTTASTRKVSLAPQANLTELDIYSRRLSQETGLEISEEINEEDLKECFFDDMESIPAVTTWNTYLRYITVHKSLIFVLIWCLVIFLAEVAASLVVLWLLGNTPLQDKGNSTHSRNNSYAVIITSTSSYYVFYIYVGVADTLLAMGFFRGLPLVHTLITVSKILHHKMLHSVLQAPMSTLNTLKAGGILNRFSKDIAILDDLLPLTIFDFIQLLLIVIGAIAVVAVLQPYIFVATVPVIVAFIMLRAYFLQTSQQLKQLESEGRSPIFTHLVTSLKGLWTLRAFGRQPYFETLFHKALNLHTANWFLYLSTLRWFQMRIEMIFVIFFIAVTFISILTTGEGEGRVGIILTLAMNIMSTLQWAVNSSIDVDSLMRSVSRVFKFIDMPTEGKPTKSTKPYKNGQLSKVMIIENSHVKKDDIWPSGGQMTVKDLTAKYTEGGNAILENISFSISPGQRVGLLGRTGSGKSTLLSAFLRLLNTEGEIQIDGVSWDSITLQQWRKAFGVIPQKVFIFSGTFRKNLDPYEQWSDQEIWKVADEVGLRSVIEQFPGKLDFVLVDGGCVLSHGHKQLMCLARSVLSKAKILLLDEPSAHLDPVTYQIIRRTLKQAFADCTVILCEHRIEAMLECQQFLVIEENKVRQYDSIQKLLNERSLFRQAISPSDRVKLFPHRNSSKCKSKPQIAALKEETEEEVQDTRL
Assay: Ussing measurements (short-circuit current, CFTRinh-172-inhibitable)
Format: cell-based
Details: compound at 10 uM and VX-809 at 3 uM, relative to VX-809 (3 uM); hBEs homozygous for ΔF508, 24 hours treatment; CFTRinh-172-inhibitable current
Protocol: As discussed above, Ussing measurements can be used to measure CFTR activity. In this method, primary lung epithelial cells (hBEs) homozygous for the Cystic Fibrosis-causing ΔF508 mutation were differentiated for a minimum of 4 weeks in an air-liquid interface on SnapWell filter plates prior to the Ussing measurements. Cells were apically mucus-washed for 30 minutes prior to treatment with compounds. The basolateral media was removed and replaced with media containing the compound of interest diluted to its final concentration from DMSO stocks. Treated cells were incubated at 37° C. and 5% CO2 for 24 hours. At the end of the treatment period, the cells on filters were transferred to the Ussing chamber and equilibrated for 30 minutes. The short-circuit current was measured in voltage clamp-mode (Vhold=0 mV), and the entire assay was conducted at a temperature of 36° C.-36.5° C. Once the voltages stabilized, the chambers were clamped, and data was recorded by pulse readings every 5 seconds. Following baseline current stabilization, the following additions were applied and the changes in current and resistance of the cells was monitored: • 1. Benzamil to the apical chamber to inhibit ENaC sodium channel. • 2. Forskolin to both chambers to activate ΔF508-CFTR by phosphorylation. • 3. Genistein to both chambers to potentiate ΔF508-CFTR channel opening. • 4. CFTRinh-172 to the apical chamber to inhibit ΔF508-CFTR Cl— conductance. The inhibitable current (that current that is blocked by CFTRinh-172) is measured as the specific activity of the ΔF508-CFTR channel, and increases in response to compound in this activity over that observed in vehicle-treated samples are identified as the correction of ΔF508-CFTR function imparted by the compound tested.

Row | SMILES | Ussing (% VX-809)
1 | O=C(NC1CCC(n2nncc2CO)CC1)c1cc(-c2ccccc2)on1 (centres unmarked) | # (activity 100-200% of VX-809 (3 uM) with compound at 10 uM and VX-809 at 3 uM)
2 | O=C(NC1CCC(c2nnc(CO)o2)C1)c1cc(-c2ccccc2)on1 (centres unmarked) | # (activity 100-200% of VX-809 (3 uM) with compound at 10 uM and VX-809 at 3 uM)
3 | CCCCNC(=O)OCc1cn([C@H]2C[C@H](NC(=O)c3cc(-c4ccccc4)on3)C2)nn1 | ## (activity ≥200% of VX-809 (3 uM) with compound at 10 uM and VX-809 at 3 uM)
4 | O=C(N[C@H]1C[C@H](Cc2nnc(CO)s2)C1)c1cc(-c2ccccc2)on1 | ## (activity ≥200% of VX-809 (3 uM) with compound at 10 uM and VX-809 at 3 uM)
5 | C[C@@H](O)c1cn([C@H]2C[C@@H](NC(=O)c3cc(-c4ccccc4)on3)C2)nn1 | ## (activity ≥200% of VX-809 (3 uM) with compound at 10 uM and VX-809 at 3 uM)
6 | O=C(N[C@H]1C[C@H](n2ccnc2)C1)c1cc(-c2ccccc2)on1 | # (activity 100-200% of VX-809 (3 uM) with compound at 10 uM and VX-809 at 3 uM)
7 | O=C(NC1CC(c2nnc(CO)o2)C1)c1cc(-c2ccccc2)on1 (centres unmarked) | ## (activity ≥200% of VX-809 (3 uM) with compound at 10 uM and VX-809 at 3 uM)
8 | CC(C)O[C@H](C)c1nnc([C@H]2C[C@H](NC(=O)c3cc(-c4ccccc4)on3)C2)o1 | ## (activity ≥200% of VX-809 (3 uM) with compound at 10 uM and VX-809 at 3 uM)
9 | C[C@@H](O)c1nnc(C2CC(NC(=O)c3cc(-c4ccc(F)cc4)on3)C2)o1 (some centres unmarked) | ## (activity ≥200% of VX-809 (3 uM) with compound at 10 uM and VX-809 at 3 uM)
10 | O=C(NC1CCC(n2nncc2CO)C1)c1cc(-c2ccccc2)on1 (centres unmarked) | ## (activity ≥200% of VX-809 (3 uM) with compound at 10 uM and VX-809 at 3 uM)
11 | O=C(N[C@H]1C[C@H](c2nnc(C3COC3)o2)C1)c1cc(-c2ccccc2)on1 | ## (activity ≥200% of VX-809 (3 uM) with compound at 10 uM and VX-809 at 3 uM)
12 | O=C(N[C@H]1C[C@@H](c2nnc(CO)s2)C1)c1cc(-c2ccccc2)on1 | ## (activity ≥200% of VX-809 (3 uM) with compound at 10 uM and VX-809 at 3 uM)
13 | O=C(N[C@H]1C[C@H](c2nnc(C3CS(=O)(=O)C3)o2)C1)c1cc(-c2ccccc2)on1 | ## (activity ≥200% of VX-809 (3 uM) with compound at 10 uM and VX-809 at 3 uM)
14 | CN1CC(c2nnc([C@H]3C[C@H](NC(=O)c4cc(-c5ccccc5)on4)C3)o2)C1 | ## (activity ≥200% of VX-809 (3 uM) with compound at 10 uM and VX-809 at 3 uM)
15 | O=C(NC1CCC(n2cc(CO)nn2)CC1)c1cc(-c2ccccc2)on1 (centres unmarked) | # (activity 100-200% of VX-809 (3 uM) with compound at 10 uM and VX-809 at 3 uM)
16 | O=C(NC1CCC(n2cc(CO)nn2)C1)c1cc(-c2ccccc2)on1 (centres unmarked) | # (activity 100-200% of VX-809 (3 uM) with compound at 10 uM and VX-809 at 3 uM)
17 | C[C@@H](O)c1cnnn1[C@H]1C[C@@H](NC(=O)c2cc(-c3ccccc3)on2)C1 | ## (activity ≥200% of VX-809 (3 uM) with compound at 10 uM and VX-809 at 3 uM)
